Assay in all cases: growth of human tumour cells (NCI), 48 h
Experiment [1] relates to ACHN.
Experiment [2] concerns CAKI-1.
In experiment [3] the test system is CCRF-CEM.
Experiment [4] deals with DMS-273.
The test system of experiment [5] is HCT-116.
Experiment [6] deals with K562.
Experiment [7] has as its system KM12.
The test system of experiment [8] is MOLT-4.
The subject of experiment [9] is NCI-H226.
Experiment [10] has as its system NCI-H522.
The subject of experiment [11] is SF-539.
The test system of experiment [12] is SK-MEL-5.
For experiment [13], the system named is SNB-19.
Experiment [14] has as its system HT-29.
Experiment [15] concerns NCI-H23.
Experiment [16] has as its system OVCAR-5.
For experiment [17], the system named is Hs-578T.
The test system of experiment [18] is MCF7.
Experiment [19] deals with T47D.

Structures are written as SMILES.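 Results reflect a 48-hour exposure of cells in 96-well plates to compound at five concentrations. GI50 = concentration required for 50% inhibition of growth.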 Calls of active or inactive are those of the source. No stated cut-off is given here; in the data, active = GI50 up to about 1.1 µM and inactive = higher.

For the compound `O=C(Nc1ccc(Nc2ccc(NC(=O)c3ccccc3)c3c2C(=O)c2ccccc2C3=O)c2c1C(=O)c1ccccc1C2=O)c1ccccc1`, the GI50 in experiment [1], in experiment [2], in experiment [3], in experiment [4], in [5] and in [6] was > 100 µM (inactive) throughout. In addition, the GI50 in [7], in experiment [8], in [9], in experiment [10], in [11] and in [12] was > 100 µM (inactive) each time. Further, the GI50 in [13] is > 100 µM (inactive).
As for `Cc1c(/C=N/NC(=O)c2ccc(Cl)cc2)c(=O)n(-c2ccccc2)n1C`, the GI50 in [1], in [3], in [4], in experiment [5], in experiment [14] and in experiment [6] was > 100 µM (inactive) in each case. Further, the GI50 in experiment [7], in experiment [8], in experiment [9], in [15], in experiment [10] and in experiment [11] was > 100 µM (inactive) throughout. The GI50 in experiment [13] is > 100 µM (inactive).
For `CC(CN(C)C)/C(=N\Nc1ccccc1)c1ccccc1` (stereo not drawn), the GI50 in [1] is 0.242 µM (active); in experiment [3] it was 0.211 µM (active); in experiment [4], 0.324 µM (active); in experiment [5], 0.415 µM (active); in experiment [14], 2.08 µM (inactive); in experiment [6], 0.112 µM (active). For the same compound, the GI50 in experiment [7] was 0.0826 µM (active); in experiment [8], 0.184 µM (active); in experiment [15], 3.4 µM (inactive); in [10], 0.889 µM (active); in experiment [16] it was 1.38 µM (inactive); in experiment [11], 0.272 µM (active). For the same compound, the GI50 was 3.3 µM (inactive) in experiment [12] and 3.72 µM (inactive) in experiment [13].
Consider `C=CC(OC(C)=O)c1ccc(OC(=O)C(C)C)c(OC)c1` (stereo not drawn), for which the GI50 in experiment [1] was 3.34 µM (inactive); in [2] it was 1.77 µM (inactive); in [3] it was 2.01 µM (inactive); in experiment [5] it was 5.85 µM (inactive); in experiment [14] it was 2.31 µM (inactive); in experiment [17], 6.64 µM (inactive). For the same compound, the GI50 is 3.15 µM (inactive) in [6]; 2.67 µM (inactive) in experiment [7]; 2.36 µM (inactive) in experiment [18]; 9.02 µM (inactive) in experiment [8]; 19.6 µM (inactive) in [9]; 9.4 µM (inactive) in [15]. The GI50 is 1.54 µM (inactive) in experiment [10]; 2.51 µM (inactive) in experiment [16]; 9.4 µM (inactive) in [11]; 15.3 µM (inactive) in experiment [12]; 11.8 µM (inactive) in [13]; 2.86 µM (inactive) in [19].
Regarding `COc1cc2cc(C(=O)N3CC(COS(C)(=O)=O)c4c3cc([N+](=O)[O-])c3ccccc43)[nH]c2c(OC)c1OC` (stereo not drawn), the GI50 is 0.547 µM (active) in experiment [1]; 0.398 µM (active) in experiment [2]; 0.778 µM (active) in experiment [3]; 1.24 µM (inactive) in experiment [5]; 6.15 µM (inactive) in experiment [14]; > 31.6 µM (inactive) in experiment [17]. The GI50 in experiment [6] is > 100 µM (inactive); in experiment [7], 30.1 µM (inactive); in experiment [18], 2 µM (inactive); in experiment [8] it was 0.407 µM (active); in experiment [9] it was > 100 µM (inactive); in [15], 2.78 µM (inactive). In addition, the GI50 in experiment [10] was 2.99 µM (inactive); in experiment [16], 18.6 µM (inactive); in [11] it was 4.05 µM (inactive); in experiment [12] it was > 10 µM (inactive); in experiment [13], > 31.6 µM (inactive); in experiment [19] it was > 31.6 µM (inactive).
In the case of `O=C1C=C(NCC(c2ccccc2)c2ccccc2)C(=O)c2ncccc21`, the GI50 in [1] was 2.28 µM (inactive); in experiment [2], 2.4 µM (inactive); in experiment [3], 2.64 µM (inactive); in experiment [5], 8.53 µM (inactive); in experiment [14], 7.45 µM (inactive); in experiment [17], 2.63 µM (inactive). Further, the GI50 in experiment [6] is 1.38 µM (inactive); in experiment [7] it was 2.19 µM (inactive); in experiment [18], 1.4 µM (inactive); in [8], 2.31 µM (inactive); in experiment [9] it was 3.1 µM (inactive); in experiment [15], 1.54 µM (inactive). For the same compound, the GI50 is 1.34 µM (inactive) in experiment [10]; 5.14 µM (inactive) in experiment [16]; 3.09 µM (inactive) in experiment [11]; 0.427 µM (active) in experiment [12]; 2.58 µM (inactive) in experiment [13]; 3.08 µM (inactive) in experiment [19].
For the compound `O=S(=O)(O)c1cccc2cccc(/N=N/c3c(O)ccc4ccccc34)c12`, the GI50 in [1], in [2], in experiment [3], in experiment [5], in experiment [14] and in experiment [17] was > 100 µM (inactive) in each case. In addition, the GI50 in experiment [6], in experiment [7], in experiment [18], in experiment [8], in experiment [9] and in experiment [15] was > 100 µM (inactive) each time. The GI50 in experiment [10], in experiment [16], in [11], in [12], in experiment [13] and in [19] was > 100 µM (inactive) in each case.
For `C(=C\c1cccs1)/c1cccc(/C=C/c2cccs2)n1`, the GI50 in experiment [1] was 8.11 µM (inactive); in experiment [2], > 100 µM (inactive); in [3], > 100 µM (inactive); in [5] it was > 100 µM (inactive); in experiment [14] it was > 100 µM (inactive); in experiment [17] it was 2.58 µM (inactive). The GI50 in [6] is > 100 µM (inactive); in experiment [7], 4.3 µM (inactive); in experiment [18], 3.55 µM (inactive); in [8] it was > 100 µM (inactive); in experiment [9], > 100 µM (inactive); in [15], > 100 µM (inactive). The GI50 in [10] was 1.53 µM (inactive); in experiment [16], > 100 µM (inactive); in experiment [11], > 100 µM (inactive); in experiment [12], > 100 µM (inactive); in experiment [13] it was 78.9 µM (inactive); in [19] it was 6.14 µM (inactive).
Take `CC(=O)OCc1cncn1S(=O)(=O)c1ccc(C)cc1`: the GI50 was > 100 µM (inactive) in experiment [1]; > 100 µM (inactive) in [2]; 30.4 µM (inactive) in experiment [3]; 25.6 µM (inactive) in experiment [5]; 33.7 µM (inactive) in experiment [14]; > 78.5 µM (inactive) in experiment [17]. For the same compound, the GI50 in experiment [6] was 5.37 µM (inactive); in experiment [7], 31.7 µM (inactive); in experiment [18], > 25.4 µM (inactive); in experiment [8], 32 µM (inactive); in experiment [9], > 100 µM (inactive); in experiment [15], > 100 µM (inactive). Moreover, the GI50 is 71.9 µM (inactive) in experiment [10]; > 100 µM (inactive) in experiment [16]; 86.9 µM (inactive) in experiment [11]; 24.2 µM (inactive) in [12]; > 100 µM (inactive) in [13]; 79.4 µM (inactive) in experiment [19].

These data come from ChEMBL document CHEMBL1201862, “PubChem BioAssay data set” (2004).
